The supplement of paper PMC5412046
Counter-ions that a name gives are not always drawn.

Legend:
SB.mhdgc-1 [1] = assay: viability at highest tested concentration (MAXR) relative to DMSO; higher = less cytotoxic; conditions: SB.mhdgc-1 (hereditary c.1380delA CDH1 gastric cancer)
Procedure, shortened: (§1)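 Patient-derived gastric cancer cells, hereditary or sporadic, were plated at 500 cells in 5 μL medium per well of a 1536-well plate and given 23 nL of compound in DMSO by pintool across 11 threefold dilutions. The top concentration was recorded for each compound. After 48 h, CellTiter-Glo was added for 30 min at room temperature and luminescence was read on a ViewLux. Values are viability normalised to DMSO, taken either at the highest concentration or as trapezoidal area under the curve.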

SB.msgc-1 [2] = assay: as above; conditions: SB.msgc-1 (sporadic gastric cancer)
Procedure, shortened: as §1

SB.mhdgc-1 [3] = assay: area under the dose-response curve of % viability (trapezoidal, 11 doses) (% viability x log10 concentration); higher = less cytotoxic; conditions: SB.mhdgc-1 (hereditary c.1380delA CDH1 gastric cancer)
Procedure, shortened: as §1

SB.msgc-1 [4] = assay: as above; conditions: SB.msgc-1 (sporadic gastric cancer)
Procedure, shortened: as §1

| SMILES | viability (SB.mhdgc-1 [1]) | viability (SB.msgc-1 [2]) | area under the dose-response curve (SB.mhdgc-1 [3]) | area under the dose-response curve (SB.msgc-1 [4]) |
| --- | --- | --- | --- | --- |
| CO[C@@H]1C(N(C)C(=O)c2ccccc2)C[C@H]2O[C@]1(C)n1c3ccccc3c3c4c(c5c6ccccc6n2c5c31)C(=O)NC4=O (stereo partly specified) [Stauprimide] (top concentration 46.0829 µM) | 41.7% | 34.8% | 386 | 301 |
| Cc1cn([C@H]2C=C[C@@H](CO)O2)c(=O)[nH]c1=O [Stavudine] (top concentration 92.1659 µM) | 142% | 55.4% | 559 | 498 |
| CN1CCN(CCCN2c3ccccc3Sc3ccc(C(F)(F)F)cc32)CC1 [Stelazine  trifluoperzine] (top concentration 46.0829 µM) | 4.15% | 7.54% | 404 | 490 |
| CC(C)n1cnc2c(NCCc3ccc(O)cc3)nc(-c3csc4ccccc34)nc21 [StemRegenin 1] (top concentration 46.0829 µM) | -0.348% | 2.16% | 298 | 413 |
| CC[C@H](/C=C/[C@@H](C)[C@H]1CC[C@H]2[C@@H]3CC=C4C[C@@H](O)CC[C@]4(C)[C@H]3CC[C@]12C)C(C)C [Stigmasterol] (top concentration 23.0415 µM) | 59.3% | 32.2% | 449 | 443 |
| CN[C@H]1[C@H](O[C@@H]2[C@H](O[C@@H]3[C@@H](O)[C@@H](O)[C@@H](NC(=N)N)[C@@H](O)[C@H]3NC(=N)N)O[C@H](C)[C@@]2(O)C=O)O[C@@H](CO)[C@@H](O)[C@H]1O [Streptomycin sulfate] (top concentration 13.5607 µM) | 137% | 126% | 617 | 611 |
| CN(N=O)C(=O)N[C@H]1C(O)OC(CO)[C@@H](O)[C@@H]1O (stereo partly specified) [Streptozocin] (top concentration 46.0829 µM) | 72.5% | 88% | 352 | 440 |
| CC1(C)[C@H](C(=O)O)N2C(=O)C[C@H]2[S+]1(=O)[O-] [Sulbactam] (top concentration 46.0829 µM) | 80.7% | 91.3% | 535 | 562 |
| COc1ncnc(N[S+](=O)([O-])c2ccc(N)cc2)c1OC [Sulfadoxine] (top concentration 46.0829 µM) | 115% | 130% | 561 | 609 |
| Cc1noc(N[S+](=O)([O-])c2ccc(N)cc2)c1C [Sulfafurazole] (top concentration 46.0829 µM) | 126% | 109% | 561 | 516 |
| COc1cnc(N[S+](=O)([O-])c2ccc(N)cc2)nc1 [Sulfameter] (top concentration 46.0829 µM) | 65.7% | 43.3% | 509 | 512 |
| Cc1nnc(N[S+](=O)([O-])c2ccc(N)cc2)s1 [Sulfamethizole] (top concentration 46.0829 µM) | 38.9% | 3.84% | 394 | 489 |
| Nc1ccc([S+](=O)([O-])Nc2ccnn2-c2ccccc2)cc1 [Sulfaphenazole] (top concentration 46.0829 µM) | 94.5% | 98.2% | 501 | 478 |
| Nc1ccc([S+](=O)([O-])Nc2ccccn2)cc1 [Sulfapyridine] (top concentration 46.0829 µM) | 98.6% | 123% | 546 | 517 |
| O=C(O)c1cc(/N=N/c2ccc([S+](=O)([O-])Nc3ccccn3)cc2)ccc1O [Sulfasalazine] (top concentration 46.0829 µM) | 82.3% | 105% | 498 | 510 |
| CC1=C(CC(=O)O)c2cc(F)ccc2/C1=C\c1ccc([S+](C)[O-])cc1 (stereo unspecified) [Sulindac] (top concentration 46.0829 µM) | 35.4% | 46.5% | 472 | 452 |
| COc1cc(N[S+](=O)([O-])c2ccc(N)cc2)nc(OC)n1 [Sulphadimethoxine] (top concentration 46.0829 µM) | 100% | 111% | 490 | 585 |
| CN[C@@H]1Cc2cccc3[nH]c(=O)n(c23)C1 [Sumanirole maleate] (top concentration 46.0829 µM) | 84.2% | 91.7% | 508 | 522 |
| CN[S+](=O)([O-])Cc1ccc2[nH]cc(CCN(C)C)c2c1 [Sumatriptan succinate] (top concentration 46.0829 µM) | 79.8% | 97.6% | 558 | 519 |
| CCN(CC)CCNC(=O)c1c(C)[nH]c(/C=C2\C(=O)Nc3ccc(F)cc32)c1C [Sunitinib malate] (top concentration 92.1659 µM) | 1.85% | 3.83% | 382 | 458 |
| CCOCC(O)COc1ccc(NC(=O)CC[S+](C)C)cc1 (stereo unspecified) [Suplatast tosilate] (top concentration 46.0829 µM) | 83.4% | 97.7% | 433 | 478 |
| Cc1ccc(C(=O)Nc2ccc([S+](=O)([O-])O)c3cc([S+](=O)([O-])O)cc([S+](=O)([O-])O)c23)cc1NC(=O)c1cccc(NC(=O)Nc2cccc(C(=O)Nc3cc(C(=O)Nc4ccc([S+](=O)([O-])O)c5cc([S+](=O)([O-])O)cc([S+](=O)([O-])O)c45)ccc3C)c2)c1 [Suramin sodium] (top concentration 46.0829 µM) | 89.1% | 70% | 480 | 474 |

| SMILES | viability (SB.mhdgc-1 [1]) | viability (SB.msgc-1 [2]) | area under the dose-response curve (SB.mhdgc-1 [3]) | area under the dose-response curve (SB.msgc-1 [4]) |
| --- | --- | --- | --- | --- |
| CNCC(O)c1ccc(O)cc1 (stereo unspecified) [Synephrine] (top concentration 46.0829 µM) | 122% | 110% | 542 | 560 |
| COc1cc(N2CCC(N3CCN(C)CC3)CC2)ccc1Nc1ncc(Cl)c(Nc2ccccc2[S+](=O)([O-])C(C)C)n1 [TAE-684] (top concentration 46.0829 µM) | 2.06% | 28.8% | 221 | 343 |
| CC(C)(O)CC(=O)NCCn1ccc2ncnc(Nc3ccc(Oc4cccc(C(F)(F)F)c4)c(Cl)c3)c21 [TAK-285] (top concentration 46.0829 µM) | 9.61% | 22.4% | 428 | 298 |
| CCc1nc(-c2cccc(C)c2)c(-c2ccnc(NC(=O)c3ccccc3)c2)s1 [TAK-715] (top concentration 46.0829 µM) | 52.5% | 39.3% | 452 | 489 |
| CN1C(=O)/C(=C(NC2=CC=C(I)C=C2F)\C3=C1\N=C/N(C[C@@H](O)CO)C3=O)F [TAK-733] (top concentration 46.0829 µM) | 34.3% | 47.1% | 317 | 407 |
| Cc1cc(OCCC[S+](C)(=O)[O-])cc(C)c1-c1cccc(COc2ccc3c(c2)OC[C@H]3CC(=O)O)c1 [TAK-875] (top concentration 46.0829 µM) | 82.2% | 49% | 545 | 488 |
| CC[S+](=O)([O-])c1cccc(-c2cc(C(=O)NC3CCN(C)CC3)c(C)c3[nH]c4ncc(C)cc4c23)c1 [TAK-901] (top concentration 46.0829 µM) | 44.2% | 49.1% | 383 | 482 |
| O=C(NNC(=O)c1ccc(CN[S+](=O)([O-])c2ccc(F)c(Cl)c2)cc1)c1ccccc1 [TCN-201] (top concentration 46.0829 µM) | 103% | 98.1% | 554 | 495 |
| N#Cc1c(NC(=O)c2cccc3ccccc23)sc2c1CCCC2 [TCS JNK 5a] (top concentration 46.0829 µM) | 62.6% | 37.7% | 476 | 404 |
| Oc1ccc(-c2ccc(-c3cc(Nc4cccc(CNC5CC5)c4)[nH]n3)cc2)c(O)c1 [TCS-2312] (top concentration 46.0829 µM) | 40.3% | 31.8% | 381 | 480 |
| Cc1cnc(Nc2ccc(CN3CCOCC3)cc2)nc1Nc1cccc([S+](=O)([O-])NC(C)(C)C)c1 [TG-46] (top concentration 46.0829 µM) | 2.85% | 5.45% | 392 | 393 |
| Cc1cnc(Nc2cccc(CN3CCOCC3)c2)nc1Nc1cccc([S+](=O)([O-])NC(C)(C)C)c1 [TG-89] (top concentration 46.0829 µM) | 6.02% | 14.5% | 434 | 439 |
| CC(NC1=CC=CC=C1)C\2=C\C(=C/N3C(=O)\C=C(/N=C23)N4CCOCC4)C (stereo unspecified) [TGX-221] (top concentration 46.0829 µM) | 34.9% | 47.8% | 324 | 428 |
| NC(=O)Nc1sc(-c2ccc(F)cc2)cc1C(N)=O [TPCA-1] (top concentration 46.0829 µM) | 3.19% | 48.3% | 298 | 446 |
| Cc1ccc([S+](=O)([O-])N[C@@H](Cc2ccccc2)C(=O)CCl)cc1 [TPCK] (top concentration 46.0829 µM) | 6.16% | 19% | 497 | 498 |
| Clc1ccccc1C(c1ccccc1)(c1ccccc1)n1cccn1 [TRAM-34] (top concentration 46.0829 µM) | 66.9% | 39.8% | 513 | 441 |
| CC(C)c1ccccc1Cc1cc(C(=O)Nc2ccc([S+](=O)([O-])c3ccccc3C(C)(C)C)cc2)c(O)c(O)c1O [TW-37] (top concentration 46.0829 µM) | 24.2% | 22.5% | 498 | 481 |
| Nc1cccc(-c2cc3c(Oc4cccc(O)c4)ncnc3[nH]2)c1 [TWS-119] (top concentration 46.0829 µM) | 48% | 32.8% | 456 | 522 |
| Nc1c2c(nc3ccccc13)CCCC2 [Tacrine hydrochloride] (top concentration 46.0829 µM) | 125% | 119% | 627 | 583 |
| CN1CC(=O)N2[C@H](c3ccc4c(c3)OCO4)c3[nH]c4ccccc4c3C[C@@H]2C1=O [Tadalafil] (top concentration 46.0829 µM) | 107% | 25.6% | 549 | 280 |
| N#CC1(c2cccc(C(=O)Nc3cc(Oc4ccc5nc(NC(=O)C6CC6)sc5n4)ccc3F)c2Cl)CC1 [Takeda-6d] (top concentration 46.0829 µM) | 68.7% | 62.4% | 496 | 434 |
| C[C@@H]1CN(Cc2ccc(F)cc2)[C@@H](C)CN1C(=O)c1cc2c(C(=O)C(=O)N(C)C)cn(C)c2cc1Cl [Talmapimod] (top concentration 46.0829 µM) | 41.1% | 74.1% | 441 | 490 |
